Data published in patent publication US20100047227A1, “NOVEL ANTICANCER CATHEPSIN FORMULATIONS AND ANTICANCER AGENT FOR USE IN COMBINED ANTICANCER THERAPY” (priority 2006, published 2010).

Experiments:
[1] = tested on: human prostate cancer ALVA-41 cells; assay: measurement for apoptosis (morphology, annexin V staining, TUNEL assay), ALVA-41 cells; type: cell-based; settings: ALVA-41 cells
Description: The cells were measured for a morphological variation of apoptosis by phase contrast microscopy. The cells of prophase and post-phase apoptosis were detected by annexin V staining and TUNEL assay. In order to carry out the annexin V staining of ALVA-41 cells, the cells were exposed to cathepsin E or cathepsin L for 4 hours and centrifuged. After centrifugation, the separated cells were washed twice with PBS and incubated with fluorescein isothiocyanate-conjugated annexin V for 10 minutes at room temperature in a dark place. The cells that were positive as a result of the annexin V staining were then detected with fluorescence microscope. The TUNEL assay was carried out for the incubated tumor cells using Apop Tag Peroxidase Apoptosis Detection Kit and for heterografts using Tumor TACS In Situ Apoptosis Detection Kit.
In the figure, an indicating bar scale represents 50 μm. […] In the figure, an indicating bar scale represents 50 μm.

[2] = tested on: TNF-α; assay: ELISA of TNF-α in culture supernatant of ALVA-41 cells; type: cell-based, human; settings: ALVA-41 cells treated with cathepsin E 100 μg/ml, 20 hours
Description: ALVA-41 cells (1×10^6 cells per a 6-cm dish) were incubated together with cathepsin E (100 μg/ml) in a non-serum culture medium Opti-MEM at 37° C. for 20 hours. The resulting culture supernatant was measured for amounts of TRAIL, FasL and TNF-α with ELSA kit in a manner as will be described briefly. A sample and a standard product (each 100 μl) were added to a microtiter plate immobilized with a monoclonal antibody to the corresponding member of the TNF family and incubated at room temperature for 2 hours. Then, the wells of the microtiter plate were washed four times with a washing buffer and 100 μl of biotin-conjugated monoclonal antibody was added to each wells of the plate, following by incubation at room temperature for 1 hour and washing the wells of the plate completely. Then, they were incubated together with 100 μl of streptoavidin-conjugated horseradish peroxidase at room temperature for 30 minutes and washed four times with a washing buffer. […] After an addition of a reaction terminating solution, the wells were measured at 450 nm with microreader.
In this experiment, the ALVA-41 cells were treated with cathepsin E (100 μg/ml) or physiological saline at 37° C. and pH 7.4 for 20 hours and measured for the amounts of TNF-α, FasL and TRAIL in the culture supernatant by ELSA. […] Apoptosis of the ALVA-41 cells was measured using the culture supernatant after immunoprecipitation. […]

[3] = tested on: ALVA-41 cells tumor in nude mice; assay: tumor growth in nude mice transplanted subcutaneously with ALVA-41 cells; type: in vivo
Description: In order to study the growth of primary tumor, 1 ml of PBS solution containing ALVA-41 cells (5×10^6 cells) was injected subcutaneously into the right flank of a male nude mouse. Separately, a solution of mouse melanoma B16 cells (1×10^6 cells) was likely injected subcutaneously into the right flank of an inbred wild-type (WT) mouse, CatE^−/− mouse and CatE^Tg mouse. The size of the tumor was measured with a caliper, and the tumor volume was calibrated by ab^2/2 (where a and b represent a maximum dimension of the central section and a minimum dimension of the central section, respectively). As the size of the heterograft of the ALVA-41 cell reached approximately 100 mm^3 (approximately at day 12 after injection), animals were divided into two groups of each 5 animals. To the two animal groups, respectively, purified cathepsin E (200 μg per kg of body weight per day) and physiological saline were injected into the central portion of the tumor for 16 days. For a measurement for the tumor weight and an immunohistochemical study, […] reached approximately 400 mm^3. For a study on metastasis, melanoma B16 cells (2×10^5 cells in 50 μl of PBS solution) was injected into a tail vein of a Wt mouse, CatE^−/− mouse and CatE^Tg. The mice were then anesthetized at day 22 after injection and killed with a lethal amount of diethylether, followed by removing the lungs and counting the number of black metastasis colonies.
As the tumor volume reached ˜[…] after subcutaneous injection, cathepsin E (200 μg/kg/day) or physiological saline was subcutaneously injected into the central portion of the tumor for 16 days. […] Data are represented as an average value±SD of the value obtained from three mice per each group. […] The TUNEL assay was carried out by reacting with diaminobenzidine and counter-staining tissue slices with 1% methyl green. Data represent the result obtained from five mice per group. In the figure, the lower image is an expanded version of the upper image. In the figure, a bar scale represents 50 μm.

## cathepsin E
[1]; 50 μg/ml
  staining with annexin V and TUNEL reagent: positive
[1]; microscopy, 100 μg/ml
  morphological changes of treated cells: morphological features of apoptosis
[2]
  TNF-α in culture supernatant: little detected
[3]; 200 μg/kg daily for 16 days into central portion of tumor, start at approx. 100 mm^3
  growth of tumor compared to saline control: grown in a remarkably controlled manner
[3]; 400 μg/kg once per day for 10 days, start at approx. 400 mm^3
  weight of the tumor versus control group: significantly lower
[3]; daily dose of 30 μg/kg or lower
  effect of suppressing the tumor: little recognized
[3]; daily dose of 50 μg/kg
  effect upon regression of tumor: rather decreased
[3]; nude mice administered cathepsin E
  toxicity toward normal tissues and cells: no effect upon toxicity toward normal tissues and cells can be recognized at all
[3]; tumors after 10 days administration
  apoptosis cells in tumor by TUNEL stain: a number of the apoptosis cells were observed
